Results from US11111240B2, “Sultam compound and application method thereof” (Chia Tai Tianqing Pharmaceutical Group Co., Ltd., priority 2016, dated 2021).

What follows are compounds tested against IDH1 (R132H) (Homo sapiens (Human), UniProt O75874, R132H) (assay: Enzyme assay, IDH1m inhibition (NADPH decrease, diaphorase/resazurin)). Conditions: 40 nM enzyme, 16 h pre-incubation at 23° C.
Chain of IDH1 (R132H) (O75874 whole entry R132H): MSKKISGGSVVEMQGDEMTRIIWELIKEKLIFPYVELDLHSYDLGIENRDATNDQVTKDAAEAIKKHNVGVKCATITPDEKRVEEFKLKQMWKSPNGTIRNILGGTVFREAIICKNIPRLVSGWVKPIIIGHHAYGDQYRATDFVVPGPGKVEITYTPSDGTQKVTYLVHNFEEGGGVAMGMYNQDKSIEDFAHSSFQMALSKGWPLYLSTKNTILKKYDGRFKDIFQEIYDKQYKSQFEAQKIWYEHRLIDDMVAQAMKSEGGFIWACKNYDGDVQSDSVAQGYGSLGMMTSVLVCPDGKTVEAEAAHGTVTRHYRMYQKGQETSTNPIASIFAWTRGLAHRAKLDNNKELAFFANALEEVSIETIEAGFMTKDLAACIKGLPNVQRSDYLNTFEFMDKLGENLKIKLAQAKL
Type: biochemical
Description: Resazurin is a traditional redox dye, and after a redox reaction, it can be reduced from a blue resazurin without fluorescence to a pink fluorescent substance, resorufin, which can be measured and quantified with relative fluorescence unit (RFU) of fluorophotometer (Ex=530-570 nm, Em=590-620 nm). At present, resazurin is widely used for determining the viability of bacteria, cells, etc. and the enzyme activity detection of oxidoreductase. We detected the decrease of cofactor NADPH to determine the inhibitory activity of a compound against IDH1m and detected the generation of cofactor NADPH to determine the inhibitory activity of a compound against IDH WT. The compound was pre-incubated with IDH1m and NADPH, and then the reaction was initiated by adding α-KG and performed for certain time under a linear condition. Then, diaphorase (lipoamide dehydrogenase) and the corresponding substrate resazurin were added thereto for detection. Lipoamide dehydrogenase terminated the IDH1m reaction by decreasing the available cofactor NADPH, which oxidized NADPH to NADP, and reduced resazurin to high fluorescent resorufin. The amount of the remaining cofactor NADPH after a specific reaction time was quantified via an easily detectable fluorophore.
The specific operation was as follows: 2.5 μl of the compound diluted in a 3-fold gradient was added to a 384-well plate, followed by adding 5 μl of the reaction buffer (20 mM Tris-HCl, pH 7.5; 150 mM NaCl; 10 mM MgCl2; 0.4 mg/mL BSA (Bovine Serum Albumin) and 2 mM DTT (dithiothreitol)) containing 40 nM IDH1 (R132H/R132C) and 20 μM NADPH. Then, the above test mixture was incubated at 23° C. for 16 hours, and then 2.5 μl of the reaction buffer containing 4 mM α-KG was added to initiate the reaction. After they were incubated for 60 minutes at room temperature, 5 μl of the termination mixture (0.4 U/ml diaphorase and 20 μM resazurin) formulated with the reaction buffer was added to convert resazurin to resorufin, so as to measure the amount of the remaining NADPH. After incubating at 23° C. for 10 minutes, fluorescence values were determined through Flexstation 3 at Ex535/Em595. The enzyme activity of each compound was respectively determined at 12 concentrations, and the data were calculated using the software GraFit6.0 (Erithacus Software) to obtain the IC50 value of each compound.
With `N#Cc1ccnc(NS(=O)(=O)c2cccc(N(C(=O)[C@@H]3CCS(=O)(=O)N3c3cc(C#N)ccn3)C(C(=O)NC3CCCCC3)c3ccccc3Cl)c2)c1` (stereo partly drawn) [Example 20, (3S)—N-(1-(2-chlorophenyl)-2-(cyclohexylamino)-2-oxoethyl)-2-(4-cyanopyridin-2-yl)-N-(3-(N-(4-cyanopyridin-2-yl)aminosulfonyl)phenyl)-isothiazolidine-3-carboxamide 1,1-dioxide] the IC50 was under 20 nM.
`N#Cc1ccnc(N2[C@H](C(=O)N(c3cc(F)cc(F)c3)[C@H](C(=O)NC3CC(F)(F)C3)c3ccccc3Cl)CCS2(=O)=O)c1` [Example 4, (S)—N—((S)-1-(2-chlorophenyl)-2-((3,3-difluorocyclobutyl)amino)-2-oxoethyl)-2-(4-cyanopyridin-2-yl)-N-(3,5-difluorophenyl)-isothiazolidine-3-carboxamide 1,1-dioxide] gave an IC50 of under 20 nM.
`N#Cc1ccnc(N2[C@H](C(=O)N(c3cccc(F)c3)[C@@H](C(=O)NC3CCC(F)(F)CC3)c3ccccc3Cl)CCS2(=O)=O)c1` [Example 22] was tested, and the IC50 was under 1000 nM.
`N#Cc1ccnc(N2[C@H](C(=O)N(c3cccc(F)c3)[C@H](C(=O)NC3CCC(F)(F)CC3)c3ccccc3Cl)CCS2(=O)=O)c1` [Example 23, (S)—N—((S)-1-(2-chlorophenyl)-2-((4,4-difluorocyclohexyl)amino)-2-oxoethyl)-2-(4-cyanopyridin-2-yl)-N-(3-fluorophenyl)-isothiazolidine-3-carboxamide 1,1-dioxide] gave an IC50 of under 20 nM.
`N#Cc1ccnc(N2[C@H](C(=O)N(c3cncc(F)c3)[C@@H](C(=O)NC3CC(F)(F)C3)c3ccccc3Cl)CCS2(=O)=O)c1` [Example 1, (S)—N—((R)-1-(2-chlorophenyl)-2-((3,3-difluorocyclobutyl)amino)-2-oxoethyl)-2-(4-cyanopyridin-2-yl)-N-(5-fluoropyridin-3-yl)-isothiazolidine-3-carboxamide 1,1-dioxide] was tested, and the IC50 was under 10000 nM.
`N#Cc1ccnc(N2[C@H](C(=O)N(c3cccc(S(N)(=O)=O)c3)C(C(=O)NC3CCCCC3)c3ccccc3Cl)CCS2(=O)=O)c1` (stereo partly drawn) [Example 26, (3S)—N-(1-(2-chlorophenyl)-2-(cyclohexylamino)-2-oxoethyl)-2-(4-cyanopyridin-2-yl)-N-(3-aminosulfonylphenyl)-isothiazolidine-3-carboxamide 1,1-dioxide] gave an IC50 of under 20 nM.
With `N#Cc1ccnc(N2[C@H](C(=O)N(c3cccc(F)c3)[C@H](C(=O)NC3CC(F)(F)C3)c3ccccc3Cl)CNS2(=O)=O)c1` [Example 24, (S)—N—((S)-1-(2-chlorophenyl)-2-((3,3-difluorocyclobutyl)amino)-2-oxoethyl)-2-(4-cyanopyridin-2-yl)-N-(3-fluorophenyl)-1,2,5-thiadiazolidine-3-carboxamide 1,1-dioxide] the IC50 was under 20 nM.
`N#Cc1cc(F)cc(N(C(=O)[C@@H]2CCS(=O)(=O)N2c2cc(C#N)ccn2)[C@H](C(=O)NC2CC(F)(F)C2)c2ccccc2Cl)c1` [Example 8, (S)—N—((S)-1-(2-chlorophenyl)-2-((3,3-difluorocyclobutyl)amino)-2-oxoethyl)-2-(4-cyanopyridin-2-yl)-N-(3-cyano-5-fluorophenyl)-isothiazolidine-3-carboxamide 1,1-dioxide] was tested, and the IC50 was under 20 nM.
In the case of `N#Cc1ccnc(N2[C@H](C(=O)N(c3cc(F)c[n+]([O-])c3)[C@H](C(=O)NC3CC(F)(F)C3)c3ccccc3Cl)CCS2(=O)=O)c1` [Example 27, 3-((S)—N—((S)-1-(2-chlorophenyl)-2-((3,3-difluorocyclobutyl)amino)-2-oxoethyl)-2-(4-cyanopyridin-2-yl)-1,1-dioxoisothiazolidine-3-carboxamido)-5-fluoropyridine-1-oxide], the IC50 is reported as 20 nM.
`N#Cc1ccnc(N2[C@H](C(=O)N(c3ccc(F)c(F)c3)[C@H](C(=O)NC3CC(F)(F)C3)c3ccccc3Cl)CCS2(=O)=O)c1` [Example 10, (S)—N—((S)-1-(2-chlorophenyl)-2-((3,3-difluorocyclobutyl)amino)-2-oxoethyl)-2-(4-cyanopyridin-2-yl)-N-(3,4-difluorophenyl)-isothiazolidine-3-carboxamide 1,1-dioxide] was tested, and the IC50 was under 20 nM.
For `N#Cc1ccnc(N2[C@H](C(=O)N(c3ccc(F)c(F)c3)[C@@H](C(=O)NC3CC(F)(F)C3)c3ccccc3Cl)CCS2(=O)=O)c1` [Example 9, (S)—N—((R)-1-(2-chlorophenyl)-2-((3,3-difluorocyclobutyl)amino)-2-oxoethyl)-2-(4-cyanopyridin-2-yl)-N-(3,4-difluorophenyl)-isothiazolidine-3-carboxamide 1,1-dioxide], the IC50 was under 1000 nM.
Compound `N#Cc1ccnc(N2[C@H](C(=O)N(c3cccc(F)c3)[C@@H](C(=O)NC3CC(F)(F)C3)c3ccccc3Cl)CCS2(=O)=O)c1` [Example 11, (S)—N—((R)-1-(2-chlorophenyl)-2-((3,3-difluorocyclobutyl)amino)-2-oxoethyl)-2-(4-cyanopyridin-2-yl)-N-(3-fluorophenyl)-isothiazolidine-3-carboxamide 1,1-dioxide] has an IC50 of under 500 nM.
`O=C(NC1CCCCC1)[C@@H](c1ccccc1Cl)N(C(=O)[C@@H]1CCS(=O)(=O)N1c1cc(F)ccn1)c1cccc(F)c1` [Example 17, (S)—N—((R)-1-(2-chlorophenyl)-2-(cyclohexylamino)-2-oxoethyl)-2-(4-fluoropyridin-2-yl)-N-(3-fluorophenyl)-isothiazolidine-3-carboxamide 1,1-dioxide] was tested, and the IC50 was under 10000 nM.
For `N#Cc1cccc(CN2[C@H](C(=O)N(c3cccc(F)c3)C(C(=O)NC3CCCCC3)c3ccccc3Cl)CCS2(=O)=O)c1` (stereo partly shown) [Example 21], the IC50 was under 10000 nM.
`C#Cc1ccnc(N2[C@H](C(=O)N(c3cccc(F)c3)C(C(=O)NC3CCCCC3)c3ccccc3Cl)CCS2(=O)=O)c1` (stereo partly drawn) [Example 19, (3S)—N-(1-(2-chlorophenyl)-2-(cyclohexylamino)-2-oxoethyl)-N-(3-fluorophenyl)-2-(4-ethynylpyridin-2-yl)isothiazolidine-3-carboxamide 1,1-dioxide] was tested, and the IC50 was under 1000 nM.
With `O=C(NC1CCCCC1)[C@H](c1ccccc1Cl)N(C(=O)[C@@H]1CCS(=O)(=O)N1c1ncccn1)c1cccc(F)c1` [Example 14, (S)—N—((S)-1-(2-chlorophenyl)-2-(cyclohexylamino)-2-oxoethyl)-2-(pyrimidin-2-yl)-N-(3-fluorophenyl)-isothiazolidine-3-carboxamide 1,1-dioxide] the IC50 was under 20 nM.
For `N#Cc1ccnc(N2[C@H](C(=O)N(c3cccc(F)c3)[C@@H](C(=O)NC3CCCCC3)c3ccccc3Cl)CCS2(=O)=O)c1` [Example 15, (S)—N—((R)-1-(2-chlorophenyl)-2-(cyclohexylamino)-2-oxoethyl)-2-(4-cyanopyridin-2-yl)-N-(3-fluorophenyl)-isothiazolidine-3-carboxamide 1,1-dioxide], the IC50 was under 500 nM.
For `N#Cc1ccnc(N2[C@H](C(=O)N(c3cccc(C(F)(F)F)c3)[C@H](C(=O)NC3CC(F)(F)C3)c3ccccc3Cl)CCS2(=O)=O)c1` [Example 6, (S)—N—((S)-1-(2-chlorophenyl)-2-((3,3-difluorocyclobutyl)amino)-2-oxoethyl)-2-(4-cyanopyridin-2-yl)-N-(3-trifluoromethylphenyl)-isothiazolidine-3-carboxamide 1,1-dioxide], the IC50 was under 20 nM.
Work on `N#Cc1cc(F)cc(N(C(=O)[C@@H]2CCS(=O)(=O)N2c2cc(C#N)ccn2)[C@@H](C(=O)NC2CC(F)(F)C2)c2ccccc2Cl)c1` [Example 7, (S)—N—((R)-1-(2-chlorophenyl)-2-((3,3-difluorocyclobutyl)amino)-2-oxoethyl)-2-(4-cyanopyridin-2-yl)-N-(3-cyano-5-fluorophenyl)-isothiazolidine-3-carboxamide 1,1-dioxide] yielded an IC50 of under 500 nM.
With `N#Cc1ccnc(N2[C@H](C(=O)N(c3cccc(F)c3)[C@H](C(=O)NC3CCCCC3)c3ccccc3Cl)CCS2(=O)=O)c1` [Example 16, (S)—N—((S)-1-(2-chlorophenyl)-2-(cyclohexylamino)-2-oxoethyl)-2-(4-cyanopyridin-2-yl)-N-(3-fluorophenyl)-isothiazolidine-3-carboxamide 1,1-dioxide] the IC50 was under 20 nM.
`CN1C[C@@H](C(=O)N(c2cccc(F)c2)C(C(=O)NC2CC(F)(F)C2)c2ccccc2Cl)N(c2cc(C#N)ccn2)S1(=O)=O` (stereo partly drawn) [Example 25, (3S)—N-(1-(2-chlorophenyl)-2-((3,3-difluorocyclobutyl)amino)-2-oxoethyl)-2-(4-cyanopyridin-2-yl)-N-(3-fluorophenyl)-5-methyl-1,2,5-thiadiazolidine-3-carboxamide 1,1-dioxide] was tested, and the IC50 was 20 nM.
In the case of `N#Cc1ccnc(N2[C@H](C(=O)N(c3cccc(C(F)(F)F)c3)[C@@H](C(=O)NC3CC(F)(F)C3)c3ccccc3Cl)CCS2(=O)=O)c1` [Example 5, (S)—N—((R)-1-(2-chlorophenyl)-2-((3,3-difluorocyclobutyl)amino)-2-oxoethyl)-2-(4-cyanopyridin-2-yl)-N-(3-trifluoromethylphenyl)-isothiazolidine-3-carboxamide 1,1-dioxide], the IC50 is reported as under 1000 nM.
